# Earlier results in patent publication US20090192135A1, “Human Niemann Pick C1-Like 1 Gene (NPC1L1) Polymorphisms and Methods of Use Thereof” (SCHERING CORPORATION, priority 2005, published 2009).
# Target: T1, NPC1L1 (Homo sapiens, UniProt Q9UHC9)
# T1 sequence (Q9UHC9 22-1359): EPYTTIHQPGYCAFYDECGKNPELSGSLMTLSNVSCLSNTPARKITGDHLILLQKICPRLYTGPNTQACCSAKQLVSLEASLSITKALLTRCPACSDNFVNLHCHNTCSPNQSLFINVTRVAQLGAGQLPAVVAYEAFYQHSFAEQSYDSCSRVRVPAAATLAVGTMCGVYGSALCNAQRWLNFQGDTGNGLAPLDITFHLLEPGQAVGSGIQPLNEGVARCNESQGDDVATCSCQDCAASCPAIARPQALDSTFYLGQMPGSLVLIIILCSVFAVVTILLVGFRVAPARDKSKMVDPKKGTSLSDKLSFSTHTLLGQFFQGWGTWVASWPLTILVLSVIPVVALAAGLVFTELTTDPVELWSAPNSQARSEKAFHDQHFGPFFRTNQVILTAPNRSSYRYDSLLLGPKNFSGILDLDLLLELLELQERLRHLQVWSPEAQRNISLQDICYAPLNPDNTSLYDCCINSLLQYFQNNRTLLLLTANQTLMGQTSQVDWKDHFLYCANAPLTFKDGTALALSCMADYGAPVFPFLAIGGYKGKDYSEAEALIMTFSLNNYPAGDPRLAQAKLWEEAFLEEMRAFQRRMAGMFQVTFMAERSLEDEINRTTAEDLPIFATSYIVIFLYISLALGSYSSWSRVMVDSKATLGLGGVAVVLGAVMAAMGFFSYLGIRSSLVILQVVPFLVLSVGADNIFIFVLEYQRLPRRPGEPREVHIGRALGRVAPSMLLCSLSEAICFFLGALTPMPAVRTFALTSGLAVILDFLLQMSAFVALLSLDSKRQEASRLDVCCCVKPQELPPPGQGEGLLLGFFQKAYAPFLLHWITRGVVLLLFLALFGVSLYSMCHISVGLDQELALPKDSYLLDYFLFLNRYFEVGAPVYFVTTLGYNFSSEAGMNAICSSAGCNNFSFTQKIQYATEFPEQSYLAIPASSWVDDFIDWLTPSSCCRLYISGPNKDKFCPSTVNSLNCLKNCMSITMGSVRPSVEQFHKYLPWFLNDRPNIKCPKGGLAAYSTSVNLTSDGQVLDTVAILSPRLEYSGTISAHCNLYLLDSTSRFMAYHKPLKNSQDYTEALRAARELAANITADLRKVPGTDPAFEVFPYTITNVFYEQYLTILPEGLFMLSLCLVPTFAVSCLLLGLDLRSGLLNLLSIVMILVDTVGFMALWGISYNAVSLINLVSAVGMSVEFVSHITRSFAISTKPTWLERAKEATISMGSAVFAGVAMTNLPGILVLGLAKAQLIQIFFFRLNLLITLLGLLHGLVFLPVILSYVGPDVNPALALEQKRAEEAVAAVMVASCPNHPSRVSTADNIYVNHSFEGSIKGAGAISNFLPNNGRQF
# Settings: co-administered with a statin; cited from earlier work
structure (smiles),measurement,value
"O=C1[C@H](CC[C@H](O)c2ccc(F)cc2)[C@@H](c2ccc(O)cc2)N1c1ccc(F)cc1 [ezetimibe, 1-(4-fluorophenyl)-3(R)-[3-(4-fluorophenyl)-3(S)-hydroxypropyl]-4(S)-(4-hydroxyphenyl)-2-azetidinone]",incremental LDL-C reduction attributable to ezetimibe,14-15%
